Results from ChEMBL document CHEMBL1138141, “Pyridazines part 41: synthesis, antiplatelet activity and SAR of 2,4,6-substituted 5-(3-oxo-3-phenylprop-1-en-1-yl)- or 5-(3-phenylprop-2-enoyl)pyridazin-3(2H)-ones” (Bioorg Med Chem Lett, 2006).
Activity calls are given as the source filed them. No cut-off for these calls is given here.

Experiments:
[1] = molecular target: Prostaglandin G/H synthase 1 (Homo sapiens) (UniProt P23219); experiment: Inhibition of thrombin-induced platelet aggregation above 100 uM; type: functional
Chain of Prostaglandin G/H synthase 1 (Homo sapiens) (P23219 whole entry): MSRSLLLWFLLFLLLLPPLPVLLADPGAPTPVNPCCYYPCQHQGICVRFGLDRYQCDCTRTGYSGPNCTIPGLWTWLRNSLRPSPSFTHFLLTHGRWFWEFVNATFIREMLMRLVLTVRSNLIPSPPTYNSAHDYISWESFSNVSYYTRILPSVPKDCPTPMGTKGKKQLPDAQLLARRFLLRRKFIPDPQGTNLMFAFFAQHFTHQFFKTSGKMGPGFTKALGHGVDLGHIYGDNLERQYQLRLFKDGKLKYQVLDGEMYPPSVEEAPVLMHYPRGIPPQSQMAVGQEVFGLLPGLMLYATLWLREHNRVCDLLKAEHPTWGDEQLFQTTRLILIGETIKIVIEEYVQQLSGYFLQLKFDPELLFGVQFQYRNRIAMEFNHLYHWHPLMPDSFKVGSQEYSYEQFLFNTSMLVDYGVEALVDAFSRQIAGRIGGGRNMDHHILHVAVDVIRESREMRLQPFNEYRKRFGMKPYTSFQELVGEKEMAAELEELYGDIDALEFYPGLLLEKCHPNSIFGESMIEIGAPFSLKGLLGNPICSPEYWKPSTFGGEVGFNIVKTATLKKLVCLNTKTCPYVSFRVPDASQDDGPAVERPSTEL

[2] = molecular target: Prostaglandin G/H synthase 1 (Homo sapiens) (UniProt P23219); experiment: Inhibition of thrombin-induced platelet aggregation below 100 uM; type: functional

Activity [1]: Active | Activity [2]: inactive
SMILES: O=C(/C=C/c1ccccc1)c1cnn(Cc2ccccc2)c(=O)c1
